Experimental data from patent US8759379B2, “Inhibitors of cytochrome P450” (Gilead Sciences, Inc., priority 2008, dated 2014).

molecular target: T1, CYP450 3A4 (Homo sapiens, UniProt P08684); assay: CYP3A inhibition assay (terfenadine oxidase, human hepatic microsomal fraction); type: biochemical; conditions: pooled human hepatic microsomes 0.25 mg/mL, terfenadine 3 μM
T1 construct: Pooled (n≧15 donors) human hepatic microsomal fraction was obtained from BD-Gentest; tissue BD-Gentest (Woburn, Mass.); host or cells: pooled human liver microsomes (n≥15 donors)
T1 sequence (P08684 whole entry): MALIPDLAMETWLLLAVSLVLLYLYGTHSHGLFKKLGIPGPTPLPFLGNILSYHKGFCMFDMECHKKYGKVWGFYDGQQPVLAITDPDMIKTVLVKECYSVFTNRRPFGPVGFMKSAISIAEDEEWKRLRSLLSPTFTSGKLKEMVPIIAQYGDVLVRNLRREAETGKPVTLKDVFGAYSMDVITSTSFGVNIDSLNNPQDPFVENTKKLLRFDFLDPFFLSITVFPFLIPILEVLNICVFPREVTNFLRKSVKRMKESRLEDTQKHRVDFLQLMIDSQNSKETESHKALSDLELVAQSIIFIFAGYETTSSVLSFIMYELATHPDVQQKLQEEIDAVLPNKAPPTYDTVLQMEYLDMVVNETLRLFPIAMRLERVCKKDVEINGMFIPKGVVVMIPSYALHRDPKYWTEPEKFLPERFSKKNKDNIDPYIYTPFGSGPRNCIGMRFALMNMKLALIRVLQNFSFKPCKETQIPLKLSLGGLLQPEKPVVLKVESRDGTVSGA
Method: Pooled (n≧15 donors) human hepatic microsomal fraction was obtained from BD-Gentest (Woburn, Mass.) who also supplied hydroxy-terfenadine, 4′-hydroxydiclofenac and NADPH regenerating system. Ritonavir was prepared from commercial Norvir® oral solution (Abbott Laboratories, Abbott Park, Ill.). Other reagents were from Sigma-Aldrich (St. Louis, Mo.) and included terfenadine, fexofenadine, BRL 15572, diclofenac and mefenamic acid.
Incubations were performed in duplicate in 50 mM potassium phosphate buffer, pH 7.4 with NADPH regenerating system used as described by the manufacturer. […] The final substrate concentrations used were equal to the apparent Km values for the activities determined under the same conditions. Inhibitors were dissolved in DMSO, and the final concentration of DMSO, from both substrate and inhibitor vehicles, was 1% (v/v). Incubations were performed at 37° C. with shaking and were initiated by addition of substrate. Aliquots were then removed at 0, 7 and 15 minutes. Samples were quenched by treatment with an acetonitrile, formic acid, water (94.8%/0.2%/5%, v/v/v) mixture containing internal standard. Precipitated protein was removed by centrifugation at 3000 rpm for 10 min and aliquots of the supernatant were then subjected to LC-MS analysis.
The LC-MS system consisted of a Waters Acquity UPLC, with a binary solvent manager and a refrigerated (8° C.) sample organizer and sample manager, interfaced to a Micromass Quattro Premier tandem mass spectrometer operating in electrospray ionization mode. The column was a Waters Acquity UPLC BEH C18 2.1×50 mm, 1.7 μm […]. Mobile phases consisted of mixtures of acetonitrile, formic acid and water, the composition for mobile phase A being 1%/0.2%/98.8% (v/v/v) and that for mobile phase B being 94.8%/0.2%/5% (v/v/v). The injection volumes were 5 μL and the flow rate was 0.8 mL/min. Concentrations of metabolites were determined by reference to standard curves generated with authentic analytes under the same conditions as the incubations. […]

Compound | IC50 [nM]
CC(C)c1nc(CN(C)C(=O)N[C@H](C(=O)N[C@H](CCN(Cc2ccccc2)C(=O)OCc2cncs2)Cc2ccccc2)C(C)C)cs1 [Example 103] | 100 to 200
CC(C)CN(CC[C@H](Cc1ccccc1)NC(=O)O[C@H]1CO[C@H]2OCC[C@H]21)S(=O)(=O)c1ccc(N)cc1 [Example 27] | 201 to 500
CC(C)CN(CC[C@H](Cc1ccccc1)NC(=O)O[C@H]1CCOC1)S(=O)(=O)c1ccc(N)cc1 [Example 28] | 501 to 1000
